# Key:
# PPARα = target: T1, PPARα (Homo sapiens, UniProt Q07869); assay: Gal4/PPARα transactivation system in HepG2 cells (luciferase reporter); assay type: cell-based; conditions: HepG2 cells transfected with Gal4/PPARα plasmids, 24 h
# T1 construct: expressed in transfected cells; host or cells: HepG2
# T1 sequence (Q07869 239-466 limits assumed): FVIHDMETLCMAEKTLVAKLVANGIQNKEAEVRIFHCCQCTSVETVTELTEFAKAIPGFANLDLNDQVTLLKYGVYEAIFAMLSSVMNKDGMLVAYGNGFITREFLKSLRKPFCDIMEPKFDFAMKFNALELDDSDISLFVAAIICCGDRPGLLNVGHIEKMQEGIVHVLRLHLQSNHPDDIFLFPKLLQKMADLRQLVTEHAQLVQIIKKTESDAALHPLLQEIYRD
# Description: PPAR activation was tested in vitro in RK13 fibroblast cell lines or in a hepatocyte line HepG2 by measuring the transcriptional activity of chimeras composed of the DNA binding domain of the yeast gal4 transcription factor and the ligand binding domain of the different PPARs. The example below is given for HepG2 cells.
# HepG2 cells were from ECACC (Porton Down, UK) and were grown in DMEM medium supplemented with 10% (VN) fetal calf serum, 100 U/ml penicillin (Gibco, Paisley, UK) and 2 mM L-glutamine (Gibco, Paisley, UK). The culture medium was changed every two days. Cells were kept at 37° C. in a humidified 95% air/5% CO2 atmosphere.
# The plasmids pG5TkpGL3, PRL-CMV, pGal4-hPPARα, pGal4-hPPARγ and pGal4-f have been described by Raspe et al. (Raspe, Madsen et al. 1999). The pGal4-mPPARα and pGal4-hPPARβ constructs were obtained by cloning PCR-amplified DNA fragments corresponding to the DEF domains of the mouse PPARα and […] nuclear receptors, respectively, into the pGal4-f vector.
# HepG2 cells were seeded in 24-well culture dishes at 5×10^4 cells/well and transfected for 2 hours with the reporter plasmid pG5TkpGL3 (50 ng/well), the expression vectors pGal4-f, pGal4-mPPARα, pGal4-hPPARα, pGal4-hPPARγ, or pGal4-hPPARβ (100 ng/well) and the transfection efficiency control vector pRL-CMV (1 ng/well) according to the previously described protocol (Raspe, Madsen et al. 1999), then incubated for 36 hours with the test compounds. At the end of the experiment, the cells were lysed (Gibco, Paisley, UK) and luciferase activity was determined with a Dual-Luciferase™ Reporter Assay System kit (Promega, Madison, Wis., USA) according to the supplier's instructions. The protein content of the cell extracts was then measured with the Bio-Rad Protein Assay kit (Bio-Rad, Munich, Germany) as directed by the supplier. […] FIG. 3 gives an example of the results obtained with the inventive compounds.
# FIG. 3: HepG2 cells transfected with Gal4/PPARα plasmids were incubated with different concentrations (5, 15, 50 and 100 μM) of the inventive comopunds (Ex 2a, Ex 4a, Ex 4p, Ex 5a, Ex 7 and Ex 11) for 24 h and with different concentrations of the vehicle (PC) noted 1, 2, 3, 4 as controls for the 5, 15, 50 and 100 μM concentrations of the inventive compounds (according to the 4:1 (m/m) ratio described in example 2 (Method of preparation of the inventive compounds for in vitro studies)). The results are expressed as the induction factor (luminescent signal of treated cells divided by luminescent signal of untreated cells) after the different treatments. […] The induction factors for inventive compound Ex 4p were 35 at 100 μM, 44 at 50 μM, 36 at 15 μM and 24 at 5 μM. The induction factors for compound Ex 5a were 32 at 100 μM, 34 at 50 μM, 15 at 15 μM and 4 at 5 μM. Finally, inventive compound Ex 7 induced a 19-fold induction at 100 μM, 19 at 50 μM, 7 at 15 μM and 1.5 at 5 μM. In contrast, when the cells were incubated with the vehicle (PC liposome), no significant induction was observed.
# LDL = LDL oxidation by copper, conjugated diene formation (OD 234 nm); assay type: biochemical; conditions: 10^−4 M
# Description: Oxidation of LDL is an important modification which plays a major role in the onset and development of atherosclerosis (Jurgens, Hoff et al. 1987). […] Unless otherwise indicated, all reagents were from Sigma (St Quentin, France).
# LDL were prepared as described by Lebeau et al. (Lebeau, Furman et al. 2000). The solutions of the test compounds were prepared at 10^−2 M in ethanol and diluted in PBS so that the final concentration ranged from 0.1 to 100 μM with a total ethanol concentration of 1% (VN).
# Before oxidation, EDTA was removed from the LDL preparation by dialysis. The oxidation reaction was then carried out at 30° C. by adding 100 μl of 16.6 μM CuSO4 to 800 μl of LDL (125 μg protein/ml) and 100 μl of a test compound solution. The formation of dienes, the species to be followed, was measured by the optical density at 234 nm in the samples treated with the compounds in the presence or absence of copper. Optical density at 234 nm was measured every 10 minutes for 8 hours on a thermostated spectrophotometer (Kontron Uvikon 930). The analyses were carried out in triplicate. A compound was considered to have antioxidant activity when it shifted the lag phase latency relative to the control sample. […] FIG. 4 presents an example of the results obtained with the inventive compounds.
# [1] = tested on: 6-OHDA-induced dopaminergic lesion; assay: Rat model of Parkinson's disease (6-OHDA), behavioral sensitization to apomorphine; assay type: in vivo; conditions: Wistar rats, 300 mg/kg per day in diet, 7 days before and 15 days after 6-OHDA lesion
# Description: Adult male Wistar rats (280-300 g) were maintained on a 12-hour light/dark cycle at a constant temperature of 20±3° C. Animals had access to food and water ad libitum and weight gain was recorded.
# Animals were fed a normal diet or a diet supplemented with the inventive compounds (300 mg/kg per day) for 7 days before induction of the dopaminergic lesion and for 15 days after induction of same.
# 6-hydroxydopamine (6-OHDA) is a neurotoxin taken up by dopaminergic neurons via a dopamine transporter. Injection of said compound into striatonigral projections induces selective destruction of dopaminergic neurons, and has allowed the development of many animal models of Parkinson's disease (Bordet et al., 2000).
# Seven days after commencement of treatment with the inventive compounds, the rats were stereotactically injected with 6-OHDA (4 μg for 8 min) or buffer (sham rats) in the left part of the median tract of the telencephalon to induce striatonigral denervation.
# Apomorphine is a dopaminergic agonist which stimulates D1 and D2 receptors. The intensity of rotational behavior is an index allowing to measure the severity of the striatonigral lesion. At the end of the treatment, rats received an intraperitoneal injection of apomorphine and rotational behavior was evaluated 15 minutes after sensitization and for a 10 minute period.
smiles,measurement,setting,value
"CCCCCCCCCCCCCCSCC(=O)OCC(COC(=O)CSCCCCCCCCCCCCCC)OC(=O)CSCCCCCCCCCCCCCC [Ex 4a, 1,2,3-tritetradecylthioacetylglycerol]",induction factor (luminescent signal of treated cells divided by luminescent signal of untreated cells),PPARα; 5 μM,6 fold
same,induction factor (luminescent signal of treated cells divided by luminescent signal of untreated cells),PPARα; 15 μM,15 fold
same,induction factor (luminescent signal of treated cells divided by luminescent signal of untreated cells),PPARα; 50 μM,23 fold
same,induction factor (luminescent signal of treated cells divided by luminescent signal of untreated cells),PPARα; 100 μM,33 fold
same,LDL oxidation rate (rate of conjugated diene formation),LDL; copper alone 3 nmol/min/mg of LDL,1 nmol/min/mg of LDL
same,decrease in the maximum amount of conjugated dienes formed,LDL; copper alone 496 nmol per mg of LDL,60%
same,lag phase for conjugated diene formation,LDL; copper alone 104 minutes,270 min
same,decrease in the oxidation rate,LDL; relative to copper alone,66%
same,increase in the lag phase,LDL; relative to copper alone,160%
same,number of apomorphine-induced rotations,[1],prophylactic and curative properties
